How the values were obtained:
C. albicans [1] = assay: Yeast-hyphae switching assay; assay type: cell-based; conditions: liquid RPMI media
Description: Yeast-hyphae switching assay: Yeast-hyphae (Y-H) switching assays were conducted in liquid RPMI-1640 medium as previously described. Briefly, overnights cultures of C. albicans (grown in PDB) were diluted to a 1:100 in RPMI-1640 and treated with or without UP/CSP ([…]) or ketones (0.005%-0.1%). The cultures were then incubated at 37° C. with shaking (150 rpm). Following incubation, 5 μL of the cultures were transferred to the microscopic slide and imaged under Nikon fluorescent microscope (Nikon Eclipse Ti2, Japan).

C. albicans [2] = assay: C. albicans biofilm inhibition assay (crystal violet); assay type: cell-based; conditions: for effect of pure ketone on C. albicans biofilms: dose not stated
Description: (§1) Biofilm inhibition assay: Biofilm inhibition assays were conducted in 96-well polystyrene microtiter plates (Tarsons Products Pvt. Ltd. India) as previously described. Briefly, bacterial or yeast cells were cultured overnight in LB or PDB and re-inoculated in fresh LB or PDB (1:100 dilution) (with 0.05% glucose) with and without supplementation of postbiotics (5% or 10% v/v) at 37° C. After 24 h of incubation, biofilms were stained with crystal violet (0.1%) for 20 min, washed repeatedly, and the residual biofilm cells (attached to the polystyrene surfaces) were dissolved in 95% ethanol. The planktonic growth was measured at 600 nm, while the biofilms were measured at 575 nm using a Biowave CO8000 cell density meter. For microscopic imaging of biofilms attached to the polystyrene surfaces, the wells were stained with SYTO® 9 dye, and imaged under Nikon fluorescent microscope (Nikon Eclipse Ti2, Japan) using a GFP emission filter.

C. albicans [3] = assay: C. albicans growth profile; assay type: cell-based
Description: as §1, with “Briefly, bacterial or yeast cells were cultured overnight in LB or PDB and re-inoculated in fresh LB or PDB (1:100 dilution) (with 0.05% glucose) with and without supplementation of postbiotics (5% or 10% v/v) at 37° C.” left out

C. albicans [4] = assay: C. elegans infected with C. albicans, treated with 2-undecanone; assay type: in vivo; conditions: 2-undecanone 0.01%, 7 days; infected untreated 20% survival
Description: C. elegans co-infection assays: Wild-type C. elegans were maintained on nematode growth medium (NGM) with E. coli OP50 as the feed, and synchronization was performed as described previously^35. Briefly, C. elegans were collected by aspiration and bleached with 2% sodium hypochlorite and 0.5 N sodium hydroxide to get the eggs. Eggs were transferred to 48-well microliter plates and were incubated for 24 h at 22° C. for hatching. The hatched juveniles were transferred to new E. coli OP50 plates and incubated for 5-7 days to obtain adult nematode. Adults were subsequently used for toxicity, and bacterial or C. albicans colonization assays. For C. albicans infection of C. elegans, the adult nematodes, previously fed on E. coli OP50, were transferred to a C. albicans lawn on NGM agar plate for 4 h. After 4 h, the nematodes were collected in M9 buffer, pipetted into a 96-well, and survival monitored for 7 days. […] The live and dead nematodes were counted under bright-field, and DAPi filter and the nematode survival rates were estimated and plotted. The images of C. elegans were acquired using a Nikon fluorescent microscope (Nikon Eclipse Ti2, Japan).
The present inventors further tested whether 2-undecanone could suppress C. albicans pathogenicity in a C. elegans model by infecting C. elegans with C. albicans.

C. elegans = C. elegans toxicity assay; assay type: in vivo; conditions: 2-undecanone 0.1%, 7 days
Description: C. elegans toxicity assay: C. elegans wild-type strains were maintained on nematode growth medium (NGM) with E. coli OP50 as the feed. […] The control and treatment groups (each consisting of approximately 30 nematodes per well) were suspended in liquid M9 buffer and monitored for 7 days. The live or dead nematodes were counted using the Nikon fluorescent microscope (Nikon Eclipse Ti2, Japan) using a DIC and DAPi (blue LED light) filters and the survival percentage was calculated.

[5] = system: unstressed L. plantarum 3297 cells from conic colonies; assay: Cold-shock colony filtrate assay: consolidated circular bundle formation in unstressed conic colony cells; assay type: cell-based; conditions: cells pre-incubated with lithium chloride (5M) before CSCF
Description: An assay was developed to see if the cold-stressed conic colony (−17° C. for 1 h) extracts could potentiate consolidated bundling in unstressed conic colony cells. Briefly, 1 mL of suspension from harvested cold-stressed (treated) and unstressed (control) conic colonies (approximately 5-6 colonies) were resuspended in PBS, vortexed, and sonicated. The extracts were filtered using a 0.2 μm membrane filter to remove the cells. The filtrate was named cold-shock colony filtrates (CSCF). Simultaneously, 1 mL cells from the unstressed colonies were vortexed, sonicated, and pelleted. To these pelleted unstressed cells, 1 mL of CSCF was added, aspirated, and incubated at 37° C. for 3 h. At the same time, colony filtrates (CF) from the unstressed colony and heat-treated (60° C. for 30 min) CSCF were prepared and tested. Following incubation, the aggregation pattern was scrutinized under Nikon fluorescent microscope (Nikon Eclipse Ti2, Japan). As a negative control, one vial of unstressed cells was incubated with 5M lithium chloride ([…]) for 30 min before adding 1 mL of CSCF. […] abolishes the S-layer protein and stalls the ability of the cells to aggregate to form bundles.

With `CCCCCCCC(C)=O` [2-nonanone] the “effect of pure ketone on C. albicans hyphae (Y-H transitions)” value (“effect of pure ketone … (Y-H transitions)” below) (C. albicans [1]) was “did not show any notable effect” and the “effect of pure ketone on C. albicans biofilms” value (C. albicans [2]) was “did not show any notable effect”.

For `CCCCCC(C)=O` [2-heptanone], the “effect of pure ketone … (Y-H transitions)” value (C. albicans [1]) was “did not show any notable effect” and the “effect of pure ketone on C. albicans biofilms” value (C. albicans [2]) was “did not show any notable effect”.

For `CCCCCCCCCC(C)=O` [2-undecanone], the “effect of pure ketone … (Y-H transitions)” value (C. albicans [1]) was “effectively controlled Y-H transitions”, the “C. albicans planktonic growth” value (C. albicans [3]; 0.005%) was “without compromising the planktonic growth” and the “C. albicans growth profiles” value (C. albicans [3]; higher dosage (0.05 or 0.01%), RPMI media) was “substantial decline in the growth profiles”. For the same compound, the “survivability of C. albicans infected C. elegans” value (C. albicans [4]) was 50%, the “C. albicans biofilm formation” value (C. albicans [2]; 0.005%, PDB, polystyrene) was “successful in preventing the biofilm formation” and the “mortality of C. elegans” value (C. elegans) was “did not induce any mortality”.

With `[Cl-].[Li+]` [lithium chloride] the “circular bundle formation induced by CSCF” value [5] was “prevented”.

— US20240336889A1, “NOMADIC BACTERIA AND USES THEREOF” (The State of Israel, Ministry of Agriculture & Rural …, priority 2021, published 2024)
